ChEMBL document CHEMBL4346729, “The discovery of novel 3-aryl-indazole derivatives as peripherally restricted pan-Trk inhibitors for the treatment of pain” (Bioorg Med Chem Lett, 2019)
≈ marks a conversion by molar mass, not a printed value. Calls of active or inactive are those of the source. The calls are words filed in the database; no cut-off is given here.

Columns and labels:
[1] = Intrinsic clearance in human liver microsomes; format: ADME, Microsome; conditions: read-out: CLH
[2] = Solubility of test compound; format: physicochemical
[3] = Apparent permeability from apical to basolateral side in MDCK cells at 50 umol/L at pH 7.4 incubated for 30 mins by LC-MS/MS analysis; format: ADME, cell-based, Canis lupus familiaris; conditions: dog
[4] = Apparent permeability from apical to basolateral side in MDCK cells at 50 umol/L at pH 6.5 incubated for 30 mins by LC-MS/MS analysis; format: ADME, cell-based, Canis lupus familiaris; conditions: dog
Rattus norvegicus = experiment: Antinociceptive activity in CFA induced thermal hypersensitivity Sprague-Dawley rat model assessed as increase in paw withdrawal latency at 100 mg/kg, po after 1 hr; format: functional, organism-based

Structure (SMILES) | CLint scaled [1] [mL/min/kg] | solubility [2] [µM] | Papp A→B at 0.5 h, 50 µM [3] [×10⁻⁶ cm/s] | Papp A→B at 0.5 h, 50 µM [4] [×10⁻⁶ cm/s] | Activity (Rattus norvegicus)
COc1cccc(-c2n[nH]c3ccc(NCc4ccccc4NS(C)(=O)=O)cc23)n1 | 833 | – | – | – | –
CS(=O)(=O)c1ccc(F)cc1CNc1ccc2[nH]nc(-c3ccc(N4CCNCC4)nc3)c2c1 | 176 to 178 | 38.7 (≈ 18.6 µg/mL) | 0.3 to 0.4 | 0.3 | –
COc1ccc(-c2n[nH]c3ccc(NCc4ccccc4NS(C)(=O)=O)cc23)cn1 | 359 | – | – | – | –
CS(=O)(=O)c1ccccc1CNc1ccc2[nH]nc(-c3ccc(N4CCNCC4)nc3)c2c1 | 74 | – | 12.5 | 0.4 | –
c1ccc(COc2ccc3[nH]nc(-c4ccc(N5CCNCC5)nc4)c3c2)cc1 | 694 | – | 9.6 | – | –
CN(Cc1ccccc1)c1ccc2[nH]nc(-c3ccc(N4CCNCC4)nc3)c2c1 | 417 | – | 7.3 | – | –
CS(=O)(=O)Nc1ccccc1CNc1ccc2[nH]nc(-c3ccc(NC4CCNCC4)nc3)c2c1 | 184 | – | 0.3 | – | –
Cn1ccc(-c2n[nH]c3ccc(NCc4cc(F)ccc4S(C)(=O)=O)cc23)n1 | 137 | 80.1 (≈ 32 µg/mL) | 34 | – | –
CS(=O)(=O)Nc1ccccc1CNc1ccc2[nH]nc(-c3ccc(OC4CCNCC4)nc3)c2c1 | 323 | – | 0.3 | – | –
c1ccc(CNc2ccc3[nH]nc(-c4ccc(N5CCNCC5)nc4)c3c2)cc1 | 12 | – | 13 | – | –
CS(=O)(=O)c1ccc(F)cc1CNc1ccc2[nH]nc(-c3cccnc3)c2c1 | 793 | 23 (≈ 9.12 µg/mL) | 61.5 | – | –
CS(=O)(=O)c1ccc(F)cc1CNc1ccc2[nH]nc(-c3ccccn3)c2c1 | 443 | 15.2 (≈ 6.03 µg/mL) | 73.2 | – | –
COc1cncc(-c2n[nH]c3ccc(NCc4ccccc4NS(C)(=O)=O)cc23)c1 | 217 | – | – | – | –
CC(C)(Nc1ccc2[nH]nc(-c3ccc(N4CCNCC4)nc3)c2c1)c1ccccc1 | 1740 | – | 11 | – | –
CC(C)Cc1ccc(C(C)C(=O)O)cc1 (stereo unspecified) | – | – | – | – | Active
CS(=O)(=O)Nc1ccccc1CNc1ccc2[nH]nc(-c3ccc(N4CCNCC4)nc3)c2c1 | 69.5 to 70 | – | 1.2 | – | –
c1ccc(CCc2ccc3[nH]nc(-c4ccc(N5CCNCC5)nc4)c3c2)cc1 | 2730 | – | 3.1 | – | –
